Values of other authors as cited in patent US11827744B2, “Bottlebrush copolymers and uses thereof” (Massachusetts Institute of Technology, priority 2016, dated 2023).

Experiments:
[1] = in vivo

For `CCc1c2c(nc3ccc(O)cc13)-c1cc3c(c(=O)n1C2)COC(=O)[C@]3(O)CC` [SN-38], the water solubility is given as “low water solubility” and the circulation life-times [1] is given as “short circulation life-times”.
